Test results as given in patent US20250163054A1, “SUBSTITUTED BICYCLIC HETEROARYL COMPOUNDS USEFUL AS INHIBITORS OF TLR9” (Bristol-Myers Squibb Company, priority 2022, published 2025).

How the values were obtained:
Assay type in all cases: cell-based
human TLR7 = biological target: T1, human TLR7 (Homo sapiens, UniProt Q9NYK1); experiment: TLR7/8/9 Inhibition Reporter Assays (TLR7); settings: HEK-Blue cells overexpressing human TLR7, SEAP reporter, stimulated with TLR7 ligand gardiquimod
T1 construct: host or cells: HEK-Blue cells (HEK293-derived reporter line)
T1 sequence (Q9NYK1 27-1049): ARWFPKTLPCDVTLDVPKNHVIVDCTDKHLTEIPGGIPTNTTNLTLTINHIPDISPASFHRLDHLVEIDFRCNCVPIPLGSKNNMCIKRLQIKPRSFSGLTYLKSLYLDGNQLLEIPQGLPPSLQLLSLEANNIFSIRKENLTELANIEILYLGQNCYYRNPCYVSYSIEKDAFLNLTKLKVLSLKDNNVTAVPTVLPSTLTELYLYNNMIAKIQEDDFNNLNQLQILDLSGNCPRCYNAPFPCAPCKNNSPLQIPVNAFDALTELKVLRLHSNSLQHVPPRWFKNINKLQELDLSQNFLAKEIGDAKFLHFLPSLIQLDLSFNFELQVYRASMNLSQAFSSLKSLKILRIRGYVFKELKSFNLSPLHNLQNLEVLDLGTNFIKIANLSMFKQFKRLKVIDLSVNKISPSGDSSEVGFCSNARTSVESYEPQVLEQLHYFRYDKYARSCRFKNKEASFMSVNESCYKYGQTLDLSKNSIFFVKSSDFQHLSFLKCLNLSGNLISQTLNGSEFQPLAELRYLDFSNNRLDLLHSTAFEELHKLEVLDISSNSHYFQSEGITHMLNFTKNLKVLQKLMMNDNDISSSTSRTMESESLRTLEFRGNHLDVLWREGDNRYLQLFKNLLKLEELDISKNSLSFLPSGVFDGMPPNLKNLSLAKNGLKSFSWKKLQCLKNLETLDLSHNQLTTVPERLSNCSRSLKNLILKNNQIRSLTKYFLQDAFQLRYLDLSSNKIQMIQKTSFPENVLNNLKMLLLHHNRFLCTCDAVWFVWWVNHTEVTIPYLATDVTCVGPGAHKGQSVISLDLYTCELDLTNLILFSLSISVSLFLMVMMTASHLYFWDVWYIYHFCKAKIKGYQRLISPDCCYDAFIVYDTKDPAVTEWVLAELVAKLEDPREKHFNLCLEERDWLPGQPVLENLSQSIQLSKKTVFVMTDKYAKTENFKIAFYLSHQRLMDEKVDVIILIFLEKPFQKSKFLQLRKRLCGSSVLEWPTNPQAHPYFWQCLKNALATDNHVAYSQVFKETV
Summary of the method: (§1)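 HEK-Blue cells overexpressing human TLR7, TLR8 or TLR9 with NF-κB/AP-1-driven SEAP reporter, pre-treated 60 min with compound ([…]). Stimulated with […] (TLR7), […] (TLR8) or ODN2006 200 nM (TLR9), then 22 h at 37° C; SEAP measured, % inhibition relative to agonist-plus-DMSO and known-inhibitor wells.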

human TLR8 = biological target: T2, human TLR8 (Homo sapiens, UniProt Q9NR97); experiment: TLR7/8/9 Inhibition Reporter Assays (TLR8); settings: HEK-Blue cells overexpressing human TLR8, SEAP reporter, stimulated with TLR8 ligand R848
T2 construct: host or cells: HEK-Blue cells (HEK293-derived reporter line)
T2 sequence (Q9NR97 27-1041): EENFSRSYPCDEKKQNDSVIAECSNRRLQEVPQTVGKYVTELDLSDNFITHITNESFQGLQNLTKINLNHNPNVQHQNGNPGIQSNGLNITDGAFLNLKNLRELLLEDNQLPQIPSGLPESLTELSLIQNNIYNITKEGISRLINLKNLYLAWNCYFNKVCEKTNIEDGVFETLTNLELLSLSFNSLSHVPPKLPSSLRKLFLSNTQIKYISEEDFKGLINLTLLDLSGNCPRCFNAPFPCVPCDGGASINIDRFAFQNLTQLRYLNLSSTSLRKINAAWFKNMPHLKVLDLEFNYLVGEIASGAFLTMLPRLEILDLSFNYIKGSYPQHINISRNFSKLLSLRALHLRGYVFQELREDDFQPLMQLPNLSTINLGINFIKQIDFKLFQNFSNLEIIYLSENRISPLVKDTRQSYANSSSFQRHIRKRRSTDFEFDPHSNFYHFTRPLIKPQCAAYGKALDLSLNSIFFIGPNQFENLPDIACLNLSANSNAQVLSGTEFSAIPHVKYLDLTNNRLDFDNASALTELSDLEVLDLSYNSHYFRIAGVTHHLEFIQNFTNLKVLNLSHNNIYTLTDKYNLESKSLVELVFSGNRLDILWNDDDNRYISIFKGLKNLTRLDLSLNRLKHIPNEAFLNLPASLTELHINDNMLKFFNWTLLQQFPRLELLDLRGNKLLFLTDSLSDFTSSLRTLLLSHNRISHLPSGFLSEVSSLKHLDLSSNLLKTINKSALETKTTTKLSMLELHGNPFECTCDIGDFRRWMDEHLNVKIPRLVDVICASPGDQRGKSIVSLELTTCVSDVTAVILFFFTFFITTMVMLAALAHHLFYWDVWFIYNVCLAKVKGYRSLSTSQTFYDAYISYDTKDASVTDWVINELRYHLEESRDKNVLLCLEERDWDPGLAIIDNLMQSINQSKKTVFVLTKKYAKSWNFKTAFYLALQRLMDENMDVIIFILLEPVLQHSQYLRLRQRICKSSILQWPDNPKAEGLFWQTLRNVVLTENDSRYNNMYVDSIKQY
Summary of the method: as §1

human TLR9 = biological target: T3, human TLR9 (Homo sapiens, UniProt Q9NR96); experiment: TLR7/8/9 Inhibition Reporter Assays (TLR9); settings: HEK-Blue cells overexpressing human TLR9, SEAP reporter, stimulated with TLR9 ligand ODN2006
T3 construct: host or cells: HEK-Blue cells (HEK293-derived reporter line)
T3 sequence (Q9NR96 26-1032): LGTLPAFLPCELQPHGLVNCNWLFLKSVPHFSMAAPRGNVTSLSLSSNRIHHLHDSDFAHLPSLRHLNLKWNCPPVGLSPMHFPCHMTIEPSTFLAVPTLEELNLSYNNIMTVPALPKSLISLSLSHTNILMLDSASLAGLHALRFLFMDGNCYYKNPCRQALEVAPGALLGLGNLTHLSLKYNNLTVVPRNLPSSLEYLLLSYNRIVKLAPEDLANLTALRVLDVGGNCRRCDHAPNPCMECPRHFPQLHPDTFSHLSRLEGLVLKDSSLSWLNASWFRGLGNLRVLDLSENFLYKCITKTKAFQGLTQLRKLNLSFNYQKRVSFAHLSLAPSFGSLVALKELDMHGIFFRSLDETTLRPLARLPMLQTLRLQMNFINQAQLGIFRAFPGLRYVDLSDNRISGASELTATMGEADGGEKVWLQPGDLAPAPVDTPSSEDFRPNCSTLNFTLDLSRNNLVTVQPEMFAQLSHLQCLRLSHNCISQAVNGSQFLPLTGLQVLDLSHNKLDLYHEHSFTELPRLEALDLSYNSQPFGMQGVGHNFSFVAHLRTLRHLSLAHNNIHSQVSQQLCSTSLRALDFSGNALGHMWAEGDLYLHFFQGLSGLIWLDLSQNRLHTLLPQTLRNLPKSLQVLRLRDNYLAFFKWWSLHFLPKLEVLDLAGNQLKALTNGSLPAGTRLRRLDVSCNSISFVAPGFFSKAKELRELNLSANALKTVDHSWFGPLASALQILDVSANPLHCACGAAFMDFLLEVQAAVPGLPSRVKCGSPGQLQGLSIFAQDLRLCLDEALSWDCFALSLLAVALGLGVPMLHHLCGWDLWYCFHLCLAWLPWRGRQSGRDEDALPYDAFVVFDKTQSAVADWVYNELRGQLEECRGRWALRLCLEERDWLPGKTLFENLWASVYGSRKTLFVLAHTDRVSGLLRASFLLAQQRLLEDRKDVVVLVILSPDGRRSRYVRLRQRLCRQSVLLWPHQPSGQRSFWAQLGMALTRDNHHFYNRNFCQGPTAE
Summary of the method: as §1

Structure (SMILES)	IC50 (human TLR7)	IC50 (human TLR8)	IC50 (human TLR9)
COCCN1CC2(CCN(c3ccc(-c4cc5c(nc(-c6ccc(OC)c(OC)c6)n5C)c(C)n4)cc3)CC2)C1 [Example 103, 2-(3,4-dimethoxyphenyl)-6-(4-(2-(2-methoxyethyl)-2,7-diazaspiro[3.5]nonan-7-yl)phenyl)-1,4-dimethyl-1H-imidazo[4,5-c]pyridine]	1700 nM	> 50000 nM	140 nM
COc1ccc(-c2nc3c(C)nc(-c4ccc(N5CC6(CN(CC(C)(C)O)C6)C5)cc4)cc3n2C)cc1OC [Example 58, 1-(6-(4-(2-(3,4-dimethoxyphenyl)-1,4-dimethyl-1H-imidazo[4,5-c]pyridin-6-yl)phenyl)-2,6-diazaspiro[3.3]heptan-2-yl)-2-methylpropan-2-ol]	1300 nM	> 50000 nM	89 nM
Cc1nc(-c2ccc(N3CCC(N4CCCC4)CC3)cc2)c(F)c2c1nc(-c1ccc(S(C)(=O)=O)cc1)n2C [Example 44, 7-fluoro-1,4-dimethyl-2-(4-(methylsulfonyl)phenyl)-6-(4-(4-(pyrrolidin-1-yl)piperidin-1-yl)phenyl)-1H-imidazo[4,5-c]pyridine]	7800 nM	> 50000 nM	2500 nM
Cc1nc(-c2ccc(N3C[C@@H]4CN(C(C)C)C[C@@H]4C3)cc2)cc2c1nc(-c1ccc(S(C)(=O)=O)cc1)n2C [Example 67, 6-(4-((3aR,6aS)-5-isopropylhexahydropyrrolo[3,4-c]pyrrol-2(1H)-yl)phenyl)-1,4-dimethyl-2-(4-(methylsulfonyl)phenyl)-1H-imidazo[4,5-c]pyridine]	1900 nM	1800 nM	41 nM
Cc1nc(-c2ccc(N3CC4(CCN(C(C)C)CC4)C3)cc2)cc2c1nc(-c1ccc(S(C)(=O)=O)cc1)n2C [Example 63, 6-(4-(7-isopropyl-2,7-diazaspiro[3.5]nonan-2-yl)phenyl)-1,4-dimethyl-2-(4-(methylsulfonyl)phenyl)-1H-imidazo[4,5-c]pyridine]	1400 nM	5300 nM	170 nM
Cc1nc(-c2ccc(N3CC4(C3)CN(C(C)C)C4)cc2)cc2c1nc(-c1ccc(S(C)(=O)=O)cc1)n2C [Example 78, 6-(4-(6-isopropyl-2,6-diazaspiro[3.3]heptan-2-yl)phenyl)-1,4-dimethyl-2-(4-(methylsulfonyl)phenyl)-1H-imidazo[4,5-c]pyridine]	7800 nM	6300 nM	130 nM
COc1ccc(-c2nc3c(C)nc(-c4ccc(N5C[C@H]6CN(CC(C)(C)O)C[C@H]6C5)cc4)cc3n2C)cc1OC [Example 94, 1-((3aR,6aS)-5-(4-(2-(3,4-dimethoxyphenyl)-1,4-dimethyl-1H-imidazo[4,5-c]pyridin-6-yl)phenyl)hexahydropyrrolo[3,4-c]pyrrol-2(1H)-yl)-2-methylpropan-2-ol]	2600 nM	44000 nM	250 nM
Cc1nc(C2CCN(C3CCN(CC(C)C)CC3)CC2)cc2c1nc(-c1ccc(S(C)(=O)=O)cc1)n2C [Example 39, 6-(1′-isobutyl-[1,4′-bipiperidin]-4-yl)-1,4-dimethyl-2-(4-(methylsulfonyl)phenyl)-1H-imidazo[4,5-c]pyridine]	920 nM	> 50000 nM	36 nM
Cc1nc(-c2ccc(CN3CCC(N(C)C4CC4)CC3)cc2)cc2c1nc(-c1ccc(S(C)(=O)=O)cc1)n2C [Example 47, N-cyclopropyl-1-(4-(1,4-dimethyl-2-(4-(methylsulfonyl)phenyl)-1H-imidazo[4,5-c]pyridin-6-yl)benzyl)-N-methylpiperidin-4-amine]	1700 nM	5500 nM	230 nM
Cc1nc(-c2ccc(CN3CCC(N4CCOCC4)CC3)cc2)cc2c1nc(-c1ccc(S(C)(=O)=O)cc1)n2C [Example 54, 4-(1-(4-(1,4-dimethyl-2-(4-(methylsulfonyl)phenyl)-1H-imidazo[4,5-c]pyridin-6-yl)benzyl)piperidin-4-yl)morpholine]	> 50000 nM	9500 nM	240 nM
COc1cc(-c2nc3c(C)nc(-c4ccc(N5CCN(CC(C)C)CC5)cc4)cc3n2C)cn2ncnc12 [Example 10, 6-(6-(4-(4-isobutylpiperazin-1-yl)phenyl)-1,4-dimethyl-1H-imidazo[4,5-c]pyridin-2-yl)-8-methoxy-[1,2,4]triazolo[1,5-a]pyridine]	9600 nM	> 50000 nM	1700 nM
